The experiment deals with Aspergillus niger. Put plainly: Direct inoculation fungal testing of coated filter paper (modified ASTM G21). It is filed as cell-based. The following applies: text summary of Tables 1 and 2, Aspergillus niger.

Turning to `Cc1cc(CC(C)CC(C)(C)C)n(O)c(=O)c1.NCCO` (stereo not shown) [picrotone olamine, monoethanolamine salt of hydroxymethyl trimethylpentyl pyridone], the “antifungal properties / bioefficacy in words” value was “excellent to good antifungal properties”.

(Values after patent publication US20080057134A1, “Antifungal compositions and method” (AgION Technologies, Inc., priority 2006, published 2008).)
